Assay results: US12679839B2, “Cyclin-dependent kinase 7 (CDK7) non-covalent inhibitors” (JANSSEN PHARMACEUTICA NV, priority 2020, dated 2026)

How the values were obtained:
[1] = molecular target: T1, CDK7/Cyclin H/MAT-1 complex (Homo sapiens, UniProt P50613); assay: Flint assay, end-point fluorescence (5 nM CDK7/Cyclin H/MAT-1 complex); assay type: biochemical; conditions: read-out: CDK7 (5 nM) pIC50 (converted)
T1 construct: Human CDK7 (amino acids 1-346); His6 (N); TEV protease cleavage site (N); made in house; host or cells: baculovirus-SF9 insect cells
Outline: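 Trimeric complex of His6-TEV-tagged human CDK7 (1-346), MAT1 (1-309) and cyclin H (1-323), co-expressed in Sf9 cells, at 5 nM final, with substrates and coupling reagents as in the absorbance assay; 24 h reaction. End-point NADH fluorescence decrease (ex 340/em 440 nm); % inhibition versus no-inhibitor and full-inhibition controls, IC50 from four-parameter Hill fit.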

[2] = molecular target: T1, CDK7/Cyclin H/MAT-1 complex; assay: Absorbance kinetic assay (20 nM CDK7/Cyclin H/MAT-1 complex); assay type: biochemical; conditions: read-out: CDK7 (20 nM) pIC50 (converted)
Outline: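 Trimeric complex (His6-TEV CDK7 1-346, MAT1 1-309, cyclin H 1-323) from Sf9 cells, at 20 nM, phosphorylating RNA Pol II-derived CDK7/9-tide; ADP coupled via PK/LDH to NADH depletion read at 340 nm every 2 min for 8 h. Steady-state slopes gave % inhibition; IC50 from 11-point Hill fit.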

T1 sequence (P50613 whole entry, the tested form may be a part): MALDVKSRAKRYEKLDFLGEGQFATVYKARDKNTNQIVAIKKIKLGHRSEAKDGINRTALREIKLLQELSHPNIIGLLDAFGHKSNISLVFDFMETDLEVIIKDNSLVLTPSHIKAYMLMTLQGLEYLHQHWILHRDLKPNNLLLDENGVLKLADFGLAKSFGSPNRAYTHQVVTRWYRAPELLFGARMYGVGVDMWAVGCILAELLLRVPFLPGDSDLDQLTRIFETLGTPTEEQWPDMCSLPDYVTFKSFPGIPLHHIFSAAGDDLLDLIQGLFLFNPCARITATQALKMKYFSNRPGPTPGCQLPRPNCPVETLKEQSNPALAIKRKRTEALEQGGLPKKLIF
T1 sequence (P51946 whole entry partner, the tested form may be a part): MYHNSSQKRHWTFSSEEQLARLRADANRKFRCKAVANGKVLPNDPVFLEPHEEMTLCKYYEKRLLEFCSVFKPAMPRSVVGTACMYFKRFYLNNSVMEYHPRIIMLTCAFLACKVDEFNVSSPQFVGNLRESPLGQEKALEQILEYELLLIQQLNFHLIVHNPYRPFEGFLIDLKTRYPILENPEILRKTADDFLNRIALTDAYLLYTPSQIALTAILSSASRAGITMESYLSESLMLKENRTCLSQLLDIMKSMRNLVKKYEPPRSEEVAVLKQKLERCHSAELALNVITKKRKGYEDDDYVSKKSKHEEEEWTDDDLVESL
T1 sequence (P51948 whole entry partner, the tested form may be a part): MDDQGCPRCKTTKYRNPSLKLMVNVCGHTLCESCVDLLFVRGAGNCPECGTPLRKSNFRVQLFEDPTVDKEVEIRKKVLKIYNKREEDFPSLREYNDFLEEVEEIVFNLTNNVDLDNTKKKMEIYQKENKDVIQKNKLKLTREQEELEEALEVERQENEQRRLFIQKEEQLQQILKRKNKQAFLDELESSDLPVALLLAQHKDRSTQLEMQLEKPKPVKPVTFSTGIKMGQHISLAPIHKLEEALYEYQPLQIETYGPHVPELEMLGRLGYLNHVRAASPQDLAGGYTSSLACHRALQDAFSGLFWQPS

SMILES | IC50 [1] | IC50 [2]
CC1CN(C(=O)[C@H]2CCN(C)C[C@@H]2c2ccccc2)Cc2nc(Nc3cnn(C)c3)ncc21 (mixture of isomers) [Compound 194] | 6.17 nM | 17.8 nM
C[C@@H]1Cc2cnc(N[C@@H]3CCC(=O)N(C)C3)nc2CN1C(=O)[C@H]1CCN(C)C[C@@H]1c1ccccc1 (relative stereo) [Compound 6] | 3.8 nM | < 9.77 nM
C[C@@H]1Cc2cnc(N[C@H]3CCOC(C)(C)C3)nc2CN1C(=O)[C@H]1CCN(C)C[C@@H]1c1ccccc1 (relative stereo) [Compound 39] | 5.01 nM | < 20 nM
Cc1cc([C@@H]2CN(C)CC[C@H]2C(=O)N2Cc3nc(NC4CCOCC4)ncc3C[C@H]2C)ccn1 (relative stereo) [Compound 102] | 19.5 nM | 105 nM
CO[C@H]1CC[C@H](Nc2ncc3c(n2)CN(C(=O)[C@@H]2CCN(C)C[C@H]2c2ccnc(C)c2)[C@H](C)C3)CC1 (relative stereo) [Compound 105] | 10 nM | < 9.77 nM
C[C@@H]1Cc2cnc(NCc3ccn(C)n3)nc2CN1C(=O)[C@H]1CCN(C)C[C@@H]1c1cccc(C(F)(F)F)c1 (relative stereo) [Compound 129] | 4.9 nM | 11.7 nM
C[C@@H]1Cc2cnc(NC3CCOCC3)nc2CN1C(=O)[C@H]1CCN(C)C[C@@H]1c1ccc(Cl)cc1 (relative stereo) [Compound 132] | 3.63 nM | 9.77 nM
C[C@@H]1Cc2cnc(NC3CCOCC3)nc2CN1C(=O)[C@H]1CCN(C)C[C@@H]1c1cccc(F)c1 (relative stereo) [Compound 133] | 8.13 nM | 12.3 nM
Cc1cccc([C@H]2CN(C)CC[C@@H]2C(=O)N2Cc3nc(NC4CCOCC4)ncc3C[C@H]2C)c1 (relative stereo) [Compound 134] | 3.16 nM | < 9.77 nM
Cc1cccc([C@@H]2CN(C)CC[C@H]2C(=O)N2Cc3nc(NCc4ccn(C)n4)ncc3C[C@H]2C)c1 (relative stereo) [Compound 136] | 15.8 nM | 11.5 nM
C[C@@H]1Cc2cnc(NCc3ccn(C)n3)nc2CN1C(=O)[C@H]1CCN(C)C[C@@H]1c1ccccc1C(F)F (relative stereo) [Compound 139] | 49 nM | 91.2 nM
C[C@@H]1Cc2cnc(NCc3ccccc3)nc2CN1C(=O)[C@@H]1CCN(C)C[C@H]1C(F)(F)F (relative stereo) [Compound 141] | 8.51 nM | 39.8 nM
C[C@@H]1Cc2cnc(NCc3ccn(C)n3)nc2CN1C(=O)[C@H]1CCN(C)C[C@@H]1C(F)(F)F (relative stereo) [Compound 143] | 8.91 nM | < 9.77 nM
C[C@@H]1Cc2cnc(N[C@H]3CCCNC3)nc2CN1C(=O)[C@H]1CCN(C)C[C@@H]1C(F)(F)F (relative stereo) [Compound 144] | 10 nM | < 9.77 nM
C[C@@H]1CN(C)CC[C@H]1C(=O)N1Cc2nc(NC3CCOCC3)ncc2C[C@H]1C (relative stereo) [Compound 145] | 100 nM | 67.6 nM
C[C@@H]1Cc2cnc(NC3CCOCC3)nc2CN1C(=O)[C@H]1CCN(C)C[C@@H]1C (relative stereo) [Compound 146] | 17.4 nM | 11.5 nM
C[C@H]1CN(C(=O)[C@H]2CCN(C)C[C@@H]2c2ccccc2)[C@@H](C)c2nc(NC3CCOCC3)ncc21 (relative stereo) [Compound 181] | 105 nM | 126 nM
C[C@@H]1CN(C(=O)[C@H]2CCN(C)C[C@@H]2c2ccccc2)Cc2nc(NC3CCOCC3)ncc21 (relative stereo) [Compound 188] | 2.82 nM | < 9.77 nM
CN1CC[C@H](C(=O)N2Cc3nc(NC4CCOCC4)ncc3CC2(C)C)[C@@H](c2ccccc2)C1 (relative stereo) [Compound 189] | 22.4 nM | 17.8 nM
[2H]C([2H])([2H])N1CC[C@@H](C(=O)N2Cc3nc(NCc4ccn(C)n4)ncc3C[C@H]2C)[C@H](c2cccc(C)c2)C1 (single isomer, unassigned) [Compound 148] | < 2.51 nM | < 9.77 nM
[2H]C([2H])([2H])N1CC[C@H](C(=O)N2Cc3nc(NCc4ccccc4)ncc3C[C@H]2C)[C@@H](c2ccccc2)C1 (single isomer, unassigned) [Compound 154] | 2.51 nM | < 9.77 nM
C[C@@H]1Cc2cnc(NC3CCOCC3)nc2[C@H](C)N1C(=O)[C@H]1CCN(C)C[C@@H]1c1ccccc1 (single isomer, unassigned) [Compound 195b] | 4.9 nM | < 9.77 nM
